Measurements as given in US9902759B2, “BH3 peptides and methods of use thereof” (Dana-Farber Cancer Institute, Inc., priority 2002, dated 2018).
Ends that are not written are not given here.

What was measured:
[1] = system: B-cell lymphoblastic leukemia; experiment: Doxycycline treatment of tet-BCL-2/MMTV-tTA/Eμ-myc leukemic mice; format: in vivo, mouse; conditions: doxycycline 500 μg/ml in drinking water, from 4-5 weeks of age
Description: Using standard recombinant DNA technology, the tet-BCL-2 allele was targeted to the DNA methyltransferase 1 locus (FIG. 10). By crossing the new mouse line with the MMTV-tTA line (Jackson Labs) mice were generated which conditionally overexpress BCL-2 in epithelial cells and in B-lineage lymphocytes. Administration of doxycycline successfully suppresses BCL-2 overexpression in these animals. When these mice are crossed with mice expressing myc in the B-lymphocyte lineage (Eμ-myc mice, Jackson Labs) mice which uniformly have B-cell lymphoblastic leukemia were obtained.
To examine the effect of removing BCL-2 expression form the leukemia cells, the effects of doxycycline treatment in a cohort of 28 mice were examined. By genotype, each of the 28 mice contained the tet-BCL-2, the MMTV-tTA, and the Eμ-myc alleles. […] At 4-5 weeks of age, half were treated with doxycycline (500 μg/ml) in drinking water, and half were left untreated. The WBC was measured by hemocytometer using 2 μl blood from tail which was lysed with 0.3% saponin and stained with Hoechst 33258.

GST-BCL-2 [2] = target: T1, GST-BCL-2 (Homo sapiens, UniProt P10415); experiment: BH3 peptide displacement from GST-BCL-2 by fluorescence polarization; format: binding
T1 construct: a GST-BCL-2 fusion protein lacking the C-terminal transmembrane domain was utilized; made in house; host or cells: E. coli BL21 DE3
Description: (§1) To determine Kd for peptide binding to BCL-2, a GST-BCL-2 fusion protein lacking the C-terminal transmembrane domain was utilized. Peptides were synthesized with a fluorescein amino-terminus using an AHA linker. […] An increase in fluorescence polarization measured on a Perkin-Elmer LS 50B luminescence spectrophotometer was quantitated to calculate binding. A non-linear fit to a sigmoidal dose-response curve utilized the program Origin 6.0 to determine Kd. […] Data were fitted to a sigmoidal curve as above, and IC50 determined.
(§2) GST-BCL-2δC21 fusion proteins were induced in BL21 DE3 by 0.1 mM IPTG. The bacterial pellets were resuspended in lysis buffer (1 mg/ml lysozyme/1% Triton X-100/0.1 mg/ml PMSF/2 μg/ml aprotinin/2 μg/ml leupeptine/1 μg/ml pepstatin A in PBS) and sonicated. After centrifugation at 20,000×g for 20 min, the supernatant was applied to glutathione-agarose beads (Sigma). The beads were washed with PBS and treated with 50 mM glutathione/50 mM TrisHCl, pH8.0 to elute protein. Eluate was dialyzed against binding buffer and concentrated using Amicon centrifugal concentrating devices.

GST-BCL-2 [3] = target: T1, GST-BCL-2; experiment: Fluorescence polarization binding of fluoresceinated BH3 peptides to GST-BCL-2; conditions: Kd (nM), BCL-2 Binding, 25 nM fluoresceinated peptide, GST-BCL-2 titration, 37° C.
Description: as §1, §2

MCL-1 = MCL-1 (Homo sapiens, UniProt Q07820); experiment: MCL-1 binding
Sequence of MCL-1 (Q07820 whole entry, species assumed): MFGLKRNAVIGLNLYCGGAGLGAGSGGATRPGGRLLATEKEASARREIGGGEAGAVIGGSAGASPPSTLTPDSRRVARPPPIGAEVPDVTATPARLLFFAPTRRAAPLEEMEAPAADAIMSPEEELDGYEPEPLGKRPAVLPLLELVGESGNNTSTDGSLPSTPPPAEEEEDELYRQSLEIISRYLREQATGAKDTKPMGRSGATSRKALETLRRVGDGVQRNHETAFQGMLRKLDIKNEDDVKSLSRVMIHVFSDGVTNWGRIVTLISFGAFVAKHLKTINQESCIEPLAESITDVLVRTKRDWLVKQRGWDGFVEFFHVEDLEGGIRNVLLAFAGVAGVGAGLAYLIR

T1 sequence (P10415 1-218 limits assumed): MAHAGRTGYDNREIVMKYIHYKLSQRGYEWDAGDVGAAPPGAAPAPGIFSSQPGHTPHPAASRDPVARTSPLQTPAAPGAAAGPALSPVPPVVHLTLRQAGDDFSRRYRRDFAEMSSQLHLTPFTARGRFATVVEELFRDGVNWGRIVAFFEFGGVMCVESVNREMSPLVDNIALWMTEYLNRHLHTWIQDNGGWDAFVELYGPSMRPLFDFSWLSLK

Compound	decrease in WBC [1]	IC50 (GST-BCL-2 [2]) [nM]	Kd (GST-BCL-2 [3]) [nM]	Kd (MCL-1) [nM]
C[C@H]1c2cccc(O)c2C(=O)C2=C(O)[C@]3(O)C(=O)C(C(N)=O)=C(O)[C@@H](N(C)C)[C@@H]3[C@@H](O)[C@@H]21 [doxycycline]	1-2 log			
EDIIRNIARHAAQVGASMDR [BIDBH3 mut]		> 30000	> 1000	> 2600
